“Also recorded” adds a separate entry of the source.
Tests used:
Gαs(R201C) = Gαs(R201C) (Homo sapiens, UniProt P63092, R201C); experiment: Cysteine modification by acrylamidine; type: binding; conditions: R201C mutant
Excerpt: (§1) The R201C mutation results in the loss of ammonium η1 and η2 of R201 thus freeing E50 to interact with R258 and R265 to indirectly stabilize switch II in an active-like conformation. Based on this finding, replacing the side chain of R201C with a close mimic of native arginine which contains N(η1) and N(η2) may correct the misactivation of the R201C mutant. […] This modification converts cysteine to an arginine mimic (FIG. 3A).

Gαs(R201C/C237S) [1] = biological target: T1, Gαs(R201C/C237S) (Homo sapiens, UniProt P63092, C237S/R201C); experiment: Cysteine modification by acrylamidine; type: binding; conditions: R201C/C237S double mutant
Excerpt: as §1

[2] = biological target: GDP-bound Gαs(R201C/C237S) (Homo sapiens, UniProt P63092, C237S/R201C); experiment: Adenylyl cyclase-activating activity of Acr-modified Gαs; type: biochemical; conditions: in the presence of GDP and Gβ1/Gγ2(C68S), free Acr removed by gel filtration
Procedure: (§2) FIGS. 3A-3C show modification of C201 by acrylamide. […] The data represents the mean SE of three independent measurements. […] The data represents the mean±SD of at least three independent measurements.
(§3) Also effect of modifying C201 with Acr on the adenylyl cyclase-activating activity of GDP-bound Gαs(R201C/C237S) was calculated. […] The kcat of Gαs(C237S) is 1.539±0.153 min^−1 (measured at 0° C.), slightly higher than that of WT Gαs (FIG. 3C). […] Following Acr modification of the R201C/C237S mutant its kcat increased to 0.471±0.043 min^−1 (measured at 0° C.), about 30% of that of Gαs(C237S).

Gαs(R201C/C237S) [3] = biological target: T1, Gαs(R201C/C237S); experiment: Single turnover GTPase activity of Acr-modified Gαs; type: biochemical
Procedure: as §2, §3

T1 sequence (P63092 7-380 isoform P63092-2 R187C/C223S limits assumed): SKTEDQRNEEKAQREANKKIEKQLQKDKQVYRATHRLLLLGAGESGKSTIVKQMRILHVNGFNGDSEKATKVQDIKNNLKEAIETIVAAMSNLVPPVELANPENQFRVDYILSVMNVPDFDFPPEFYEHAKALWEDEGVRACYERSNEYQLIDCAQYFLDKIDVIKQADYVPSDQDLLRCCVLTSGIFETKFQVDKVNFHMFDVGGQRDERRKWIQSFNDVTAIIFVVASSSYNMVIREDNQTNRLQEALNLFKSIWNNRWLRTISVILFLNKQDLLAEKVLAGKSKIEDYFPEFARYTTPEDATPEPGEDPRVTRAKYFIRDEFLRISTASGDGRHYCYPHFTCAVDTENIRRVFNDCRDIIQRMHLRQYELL
Chain of GDP-bound Gαs(R201C/C237S) (P63092 7-380 isoform P63092-2 R187C/C223S limits assumed): as above
Chain of Gαs(R201C) (P63092 7-380 isoform P63092-2 R187C limits assumed): as the sequence (P63092 7-380 isoform P63092-2 R187C/C223S limits assumed) above, with S217C counted along it

cysteines modified by Acr (Gαs(R201C)): can modify Cys237 and Cys201
cysteines modified by Acr (Gαs(R201C/C237S) [1]): only Cys201 can be modified
kcat after Acr modification relative to that of Gαs(C237S) (Gαs(R201C/C237S) [3]; measured at 0° C.): about 30%
kcat of R201C/C237S mutant following Acr modification (Gαs(R201C/C237S) [3]; measured at 0° C.): 0.00785 ± 0.000717 s⁻¹
SMILES: C=CC(=N)N [Acr, acrylamidine]
ability of Acr-modified Gαs(R201C/C237S) to activate adenylyl cyclase [2]: lowered to the same level as that of Gαs(C237S); also recorded: decreased
single turnover GTPase activity of the R201C/C237S mutant after modification of C201 by Acr (Gαs(R201C/C237S) [3]; FIG. 3C legend): increased the single turnover GTPase activity of the R201C/C237S mutant to a level close to that of the C237S mutant

From US20240336563A1, “G-ALPHA-S INHIBITORS AND USES THEREOF” (The Regents of the University of California, priority 2021, published 2024)
